pIC50: −log10 of the molar value. Bounds are passed on as bounds.

Here are results for three compounds from publication PMC10380619, “Inhibitor Trapping in N-Myristoyltransferases as a Mechanism for Drug Potency” (International Journal of Molecular Sciences, 2023).

Assay [1] concerns NMT. To be noted: cited from earlier work; for pIC50: fragments as single agents.
The target of assay [2] is T1, full-length recombinant HsNMT1 enzyme (Homo sapiens, UniProt P30419).
T1 construct: 18.9 nM full-length recombinant HsNMT1 enzyme was incubated; purchased Fitzgerald Industries International 80R-4067
T1 sequence (P30419 1-496): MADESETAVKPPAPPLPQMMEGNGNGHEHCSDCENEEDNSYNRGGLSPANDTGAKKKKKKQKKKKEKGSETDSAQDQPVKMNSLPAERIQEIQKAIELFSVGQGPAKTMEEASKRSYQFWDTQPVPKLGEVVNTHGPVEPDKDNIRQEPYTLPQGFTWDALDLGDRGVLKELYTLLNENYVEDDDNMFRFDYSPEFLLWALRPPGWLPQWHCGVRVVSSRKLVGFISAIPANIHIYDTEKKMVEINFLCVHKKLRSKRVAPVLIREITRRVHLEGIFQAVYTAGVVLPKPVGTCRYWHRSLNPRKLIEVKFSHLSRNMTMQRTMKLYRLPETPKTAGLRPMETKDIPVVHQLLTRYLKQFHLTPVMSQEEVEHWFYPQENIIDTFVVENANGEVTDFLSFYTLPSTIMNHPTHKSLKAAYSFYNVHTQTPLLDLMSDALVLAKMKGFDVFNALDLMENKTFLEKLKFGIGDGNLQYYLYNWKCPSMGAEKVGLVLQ
Put plainly: fluorogenic NMT inhibition assay. The class given is biochemical. On the procedure: Materials and reagents. […] The ZINC IDs and the structures of the compounds are included in Table S1. […] CPM (7-Diethylamino-3- (4-maleimidophenyl)-4-methylcoumarin) and Myristoyl-CoA were purchased from Cayman Chemicals, and the buffer components from Merck (Kenilworth, NJ, USA).
NMT inhibition assay. IC50 values were determined using a fluorogenic NMT assay, as previously described. The assay detects Coenzyme A (CoA), which is released as a byproduct of the enzymatic reaction. […] The reactions were performed in reaction buffer (20 mM potassium phosphate, pH 8.0, 0.5 mM EDTA, 0.1% (v/v) Triton® X-100) in 44 µL volume in a 96-well black plate. To eliminate the background fluorescence, reactions were also performed in the absence of the NMT1 enzyme for each concentration of the ligands. […] Fluorescence was measured at an excitation wavelength of 380 nm and an emission wavelength of 470 nm with a CLARIOstar fluorescent reader (BMG LABTECH GmbH, Ortenberg, Germany). The fluorescent values of samples obtained in the absence of NMT1 were subtracted from the fluorescent signal of samples performed in the presence of NMT1 to eliminate the background signal. The subtracted values were plotted in GraphPad Prism using a log (inhibitor concentration) vs. normalized response nonlinear fit to generate inhibitory curves and determine IC50 values.

By pIC50 is commonly meant −log10 of the IC50, conventionally taken in molar units. Consider `Cc1cc(F)ccc1-c1ccc2[nH]nc(CN(C)C)c2c1` [IMP-72], for which the negative-log IC50 (pIC50) in assay [1] was 4.70. Further, the “fold reduction of IC50 of IMP-72 by IMP-358” value in assay [1] (in the presence of 100 µM IMP-358) is on record as 308 fold.
Take `CCOC(=O)c1c(C)nc2ccccc2c1C` [IMP-358]: the pIC50 in assay [1] was less than 4.00.
For orientation: % Inhibition means the share of the control response that was lost under treatment. `Cc1nc(Nc2cnn(C3CCNCC3)c2)nc2c1N(C)C(=O)c1cc3ccccc3cc1N2C` [compound 11]: in assay [2] (18.9 nM HsNMT1, 4 µM Myristoyl-CoA, 4 µM substrate peptide, highest concentration 100 µM), the pIC50 was less than 4.00. In assay [2] (at concentration of the compounds 100 µM), the “% Inhibition” value worked out at 0%. In assay [2] (ratio of IC50 of each compound to IC50 of IMP-1088), the “Fold Potency” value is on record as >13,158.
